Laboratory results from patent publication US11419852B2, “Beta-lactam compounds or salts thereof for use in long-acting prevention or treatment of a glucose metabolism disorder” (GLYCOLYSIS BIOMED CO., LTD., priority 2019, dated 2022).
Marks after values point to notes of the source that are not given here.

Test system: db/db mice
Test: Oral glucose tolerance test (OGTT)
Assay type: in vivo
Set-up: OGTT AUC: unit not given here
Experimental: Four to five weeks old db/db mice (BKS.Cg-Dock7^m+/+Lepr^db/JNarl) and m/m mice (BKS.Cg-Dock7^m+/Dock7^m+) were obtained from National Laboratory Animal Center ([…], Taiwan). […] PMI Nutrition International, Brentwood, Mo.) and water ad libitum. […] Blood was sampled from the tail vein, and FPG levels were measured and recorded as the basic blood glucose levels. […] The total area under the curve (AUC) in OGTT was plotted and calculated by the Area Under Coordinates Program (StatsToDo Server, Department of Obstetrics and Gynecology, Chinese University of Hong Kong).

`CN(C)C(=N)N=C(N)N` [Met, metformin] was tested, and the “Oral glucose tolerance (OGT) of db/db mice” value (Ex 2, most time points (ertapenem: weeks 6 and 12)) was “no significant changes”, the Level of OGTT (blood glucose) (Ex 2 G3 db/db, Met oral 0.3 mg/g bw/day, dosing 6 weeks, Week 6, 0 min) was 222 ± 30 mg/dL and the “Level of OGTT (blood glucose)” value (Ex 2 G3 db/db, Met oral 0.3 mg/g bw/day, dosing 6 weeks, Week 6, 15 min) was 828 ± 33^bc. For the same compound, the “Level of OGTT (blood glucose)” value (Ex 2 G3 db/db, Met oral 0.3 mg/g bw/day, dosing 6 weeks, Week 6, 30 min) was 832 ± 42^c, the “Level of OGTT (blood glucose)” value (Ex 2 G3 db/db, Met oral 0.3 mg/g bw/day, dosing 6 weeks, Week 6, 60 min) was 710 ± 86^cd and the “Level of OGTT (blood glucose)” value (Ex 2 G3 db/db, Met oral 0.3 mg/g bw/day, dosing 6 weeks, Week 6, 120 min) was 417 ± 42^cd. The “Level of OGTT (blood glucose)” value (Ex 2 G3 db/db, Met oral 0.3 mg/g bw/day, dosing 6 weeks, Week 12, 0 min) was 267 ± 43^cd, the Level of OGTT (blood glucose) (Ex 2 G3 db/db, Met oral 0.3 mg/g bw/day, dosing 6 weeks, Week 12, 15 min) was 821 ± 47 mg/dL and the “Level of OGTT (blood glucose)” value (Ex 2 G3 db/db, Met oral 0.3 mg/g bw/day, dosing 6 weeks, Week 12, 30 min) was 839 ± 40^cd. The “Level of OGTT (blood glucose)” value (Ex 2 G3 db/db, Met oral 0.3 mg/g bw/day, dosing 6 weeks, Week 12, 60 min) was 741 ± 51^c, the “Level of OGTT (blood glucose)” value (Ex 2 G3 db/db, Met oral 0.3 mg/g bw/day, dosing 6 weeks, Week 12, 120 min) was 564 ± 70^c and the Level of OGTT (blood glucose) (Ex 2 G3 db/db, Met oral 0.3 mg/g bw/day, dosing 6 weeks, Week 16, 0 min) was 215 ± 27 mg/dL. For the same compound, the Level of OGTT (blood glucose) (Ex 2 G3 db/db, Met oral 0.3 mg/g bw/day, dosing 6 weeks, Week 16, 15 min) was 611 ± 24 mg/dL, the Level of OGTT (blood glucose) (Ex 2 G3 db/db, Met oral 0.3 mg/g bw/day, dosing 6 weeks, Week 16, 30 min) was 703 ± 15 mg/dL and the Level of OGTT (blood glucose) (Ex 2 G3 db/db, Met oral 0.3 mg/g bw/day, dosing 6 weeks, Week 16, 60 min) was 637 ± 27 mg/dL. For the same compound, the “Level of OGTT (blood glucose)” value (Ex 2 G3 db/db, Met oral 0.3 mg/g bw/day, dosing 6 weeks, Week 16, 120 min) was 444 ± 62^cd, the Level of OGTT (blood glucose) (Ex 2 G3 db/db, Met oral 0.3 mg/g bw/day, dosing 6 weeks, Week 18, 0 min) was 346 ± 58 mg/dL and the Level of OGTT (blood glucose) (Ex 2 G3 db/db, Met oral 0.3 mg/g bw/day, dosing 6 weeks, Week 18, 15 min) was 836 ± 58 mg/dL. For the same compound, the Level of OGTT (blood glucose) (Ex 2 G3 db/db, Met oral 0.3 mg/g bw/day, dosing 6 weeks, Week 18, 30 min) was 885 ± 73 mg/dL, the Level of OGTT (blood glucose) (Ex 2 G3 db/db, Met oral 0.3 mg/g bw/day, dosing 6 weeks, Week 18, 60 min) was 769 ± 55 mg/dL and the “Level of OGTT (blood glucose)” value (Ex 2 G3 db/db, Met oral 0.3 mg/g bw/day, dosing 6 weeks, Week 18, 120 min) was 589 ± 67^bc. The “OGTT AUC” value (Ex 2 G3 db/db, Met oral 0.3 mg/g bw/day, dosing 6 weeks, week 6) was 1288 ± 93^c, the “OGTT AUC” value (Ex 2 G3 db/db, Met oral 0.3 mg/g bw/day, dosing 6 weeks, week 12) was 1391 ± 94^cd and the “OGTT AUC” value (Ex 2 G3 db/db, Met oral 0.3 mg/g bw/day, dosing 6 weeks, week 16) was 1143 ± 55^c. The “OGTT AUC” value (Ex 2 G3 db/db, Met oral 0.3 mg/g bw/day, dosing 6 weeks, week 18) was 1456 ± 85^b, the “OGTT AUC” value (Ex 3: db/db mice, daily dosing 3 weeks at doses of Table 10, Week 6 (stopped for 3 weeks)) was 1603 ± 46^c and the “OGTT AUC” value (Ex 3: db/db mice, daily dosing 3 weeks at doses of Table 10, Week 9 (stopped for 6 weeks)) was 1707 ± 43^f.
